PubChem BioAssay (NCI)
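Compound exposure: 48 hours, 5 concentrations, 96-well plates. Abbreviation: GI50, concentration required for 50% inhibition of growth. Definition used: TGI = concentration required for complete inhibition of growth.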

Key:
Assay in all cases: NCI anticancer screen, dose series, 48 h
MDA-MB-435 = test system: MDA-MB-435
NCI/ADR-RES ovarian = test system: NCI/ADR-RES ovarian
TK-10 renal = test system: TK-10 renal
U251 CNS = test system: U251 CNS
HOP-62 NSCLC = test system: HOP-62 NSCLC
SNB-19 CNS = test system: SNB-19 CNS
NCI-H23 lung = test system: NCI-H23 lung
HS 578T breast = test system: HS 578T breast
HCC-2998 colon = test system: HCC-2998 colon
NCI-H226 lung = test system: NCI-H226 lung
RPMI-8226 leukemia = test system: RPMI-8226 leukemia
UACC-62 melanoma = test system: UACC-62 melanoma
COLO 205 colon = test system: COLO 205 colon
SK-MEL-2 melanoma = test system: SK-MEL-2 melanoma
MDA-MB-231 breast = test system: MDA-MB-231 breast
M14 melanoma = test system: M14 melanoma
A549 NSCLC = test system: A549 NSCLC
SNB-75 CNS = test system: SNB-75 CNS
OVCAR-3 ovarian = test system: OVCAR-3 ovarian
OVCAR-5 ovarian = test system: OVCAR-5 ovarian
KM12 colon = test system: KM12 colon
SR leukemia = test system: SR leukemia
HCT-116 colon = test system: HCT-116 colon
T-47D breast = test system: T-47D breast
SW-620 colon = test system: SW-620 colon
SK-MEL-5 melanoma = test system: SK-MEL-5 melanoma
RXF 393 renal = test system: RXF 393 renal
SN12C renal = test system: SN12C renal
CAKI-1 renal = test system: CAKI-1 renal
CCRF-CEM leukemia = test system: CCRF-CEM leukemia
MALME-3M melanoma = test system: MALME-3M melanoma
HOP-92 NSCLC = test system: HOP-92 NSCLC
OVCAR-4 ovarian = test system: OVCAR-4 ovarian
SF-268 CNS = test system: SF-268 CNS
ACHN renal = test system: ACHN renal
SK-OV-3 ovarian = test system: SK-OV-3 ovarian
BT-549 breast = test system: BT-549 breast
NCI-H522 lung = test system: NCI-H522 lung
MOLT-4 leukemia = test system: MOLT-4 leukemia
SF-539 CNS = test system: SF-539 CNS
DU-145 prostate = test system: DU-145 prostate
UO-31 renal = test system: UO-31 renal
HT29 colon = test system: HT29 colon
IGROV1 ovarian = test system: IGROV1 ovarian
PC-3 prostate = test system: PC-3 prostate
SF-295 CNS = test system: SF-295 CNS
OVCAR-8 ovarian = test system: OVCAR-8 ovarian
UACC-257 melanoma = test system: UACC-257 melanoma
HCT-15 colon = test system: HCT-15 colon
NCI-H460 lung = test system: NCI-H460 lung
EKVX NSCLC = test system: EKVX NSCLC
HL-60(TB) leukemia = test system: HL-60(TB) leukemia
786-0 renal = test system: 786-0 renal
K-562 leukemia = test system: K-562 leukemia
LOX IMVI melanoma = test system: LOX IMVI melanoma
MCF7 breast = test system: MCF7 breast
SK-MEL-28 melanoma = test system: SK-MEL-28 melanoma

**Q.** Which results are given for `COc1ccc(/C(C)=C(\c2ccc(Cl)cc2)c2ccc(OCCN3CCCCC3)cc2)cc1F`?
**A.** GI50 (MDA-MB-435): 2.71 µM; TGI (MDA-MB-435): 5.37 µM; GI50 (NCI/ADR-RES ovarian): 3.53 µM; TGI (NCI/ADR-RES ovarian): 9.67 µM; GI50 (TK-10 renal): 3.49 µM; TGI (TK-10 renal): 9.12 µM; GI50 (U251 CNS): 2.68 µM; TGI (U251 CNS): 6.51 µM; GI50 (HOP-62 NSCLC): 3.34 µM; TGI (HOP-62 NSCLC): 6.58 µM; GI50 (SNB-19 CNS): 5.37 µM; TGI (SNB-19 CNS): > 16.7 µM; GI50 (NCI-H23 lung): 2.78 µM; TGI (NCI-H23 lung): 7.09 µM; GI50 (HS 578T breast): 2.83 µM; TGI (HS 578T breast): 6.78 µM; GI50 (HCC-2998 colon): 3.21 µM; TGI (HCC-2998 colon): 7.14 µM; GI50 (NCI-H226 lung): 4.35 µM; TGI (NCI-H226 lung): > 16.7 µM; GI50 (RPMI-8226 leukemia): 3.49 µM; TGI (RPMI-8226 leukemia): 8.49 µM; GI50 (UACC-62 melanoma): 3.68 µM; TGI (UACC-62 melanoma): 8.9 µM; GI50 (COLO 205 colon): 1.75 µM; TGI (COLO 205 colon): 5.25 µM; GI50 (SK-MEL-2 melanoma): 3.53 µM; TGI (SK-MEL-2 melanoma): 7.65 µM; GI50 (MDA-MB-231 breast): 3.04 µM; TGI (MDA-MB-231 breast): 5.71 µM; GI50 (M14 melanoma): 2.61 µM; TGI (M14 melanoma): 6.17 µM; GI50 (A549 NSCLC): 4.43 µM; TGI (A549 NSCLC): > 16.7 µM; GI50 (SNB-75 CNS): 4.29 µM; TGI (SNB-75 CNS): 13.1 µM; GI50 (OVCAR-3 ovarian): 3.25 µM; TGI (OVCAR-3 ovarian): 6.65 µM; GI50 (OVCAR-5 ovarian): 3.06 µM; TGI (OVCAR-5 ovarian): 9.45 µM; GI50 (KM12 colon): 1.97 µM; TGI (KM12 colon): 6.23 µM; GI50 (SR leukemia): 1.8 µM; TGI (SR leukemia): > 16.7 µM; GI50 (HCT-116 colon): 2.04 µM; TGI (HCT-116 colon): 5.14 µM; GI50 (T-47D breast): 4.25 µM; TGI (T-47D breast): 14.5 µM; GI50 (SW-620 colon): 2.34 µM; TGI (SW-620 colon): 5.35 µM; GI50 (SK-MEL-5 melanoma): 2.76 µM; TGI (SK-MEL-5 melanoma): 5.1 µM; GI50 (RXF 393 renal): 2.84 µM; TGI (RXF 393 renal): 5.75 µM; GI50 (SN12C renal): 2.75 µM; TGI (SN12C renal): 7.24 µM; GI50 (CAKI-1 renal): 3.14 µM; TGI (CAKI-1 renal): 6.48 µM; GI50 (CCRF-CEM leukemia): 3.98 µM; TGI (CCRF-CEM leukemia): 16.1 µM; GI50 (MALME-3M melanoma): 2.18 µM; TGI (MALME-3M melanoma): 4.46 µM; GI50 (HOP-92 NSCLC): 2.5 µM; TGI (HOP-92 NSCLC): 6.08 µM; GI50 (OVCAR-4 ovarian): 2.99 µM; TGI (OVCAR-4 ovarian): 8.99 µM; GI50 (SF-268 CNS): 5.96 µM; TGI (SF-268 CNS): > 16.7 µM; GI50 (ACHN renal): 4.93 µM; TGI (ACHN renal): 14.4 µM; GI50 (SK-OV-3 ovarian): 5.92 µM; TGI (SK-OV-3 ovarian): > 16.7 µM; GI50 (BT-549 breast): 3.11 µM; TGI (BT-549 breast): 7.47 µM; GI50 (NCI-H522 lung): 3.54 µM; TGI (NCI-H522 lung): 7.94 µM; GI50 (MOLT-4 leukemia): 3.4 µM; TGI (MOLT-4 leukemia): 11.3 µM; GI50 (SF-539 CNS): 2.42 µM; TGI (SF-539 CNS): 4.67 µM; GI50 (DU-145 prostate): 4.64 µM; TGI (DU-145 prostate): 15 µM; GI50 (UO-31 renal): 2.05 µM; TGI (UO-31 renal): 4.21 µM; GI50 (HT29 colon): 0.65 µM; TGI (HT29 colon): > 16.7 µM; GI50 (IGROV1 ovarian): 3.16 µM; TGI (IGROV1 ovarian): 9.37 µM; GI50 (PC-3 prostate): 2.67 µM; TGI (PC-3 prostate): 7.47 µM; GI50 (SF-295 CNS): 2.75 µM; TGI (SF-295 CNS): 5.52 µM; GI50 (OVCAR-8 ovarian): 4.11 µM; TGI (OVCAR-8 ovarian): 12.4 µM; GI50 (UACC-257 melanoma): 3.1 µM; TGI (UACC-257 melanoma): 7.04 µM; GI50 (HCT-15 colon): 0.943 µM; TGI (HCT-15 colon): 3.37 µM; GI50 (NCI-H460 lung): 2.59 µM; TGI (NCI-H460 lung): 5.38 µM; GI50 (EKVX NSCLC): 4.78 µM; TGI (EKVX NSCLC): > 16.7 µM; GI50 (HL-60(TB) leukemia): 2.85 µM; TGI (HL-60(TB) leukemia): 6.82 µM; GI50 (786-0 renal): 2.69 µM; TGI (786-0 renal): 5.3 µM; GI50 (K-562 leukemia): 0.698 µM; TGI (K-562 leukemia): 5.93 µM; GI50 (LOX IMVI melanoma): 2.42 µM; TGI (LOX IMVI melanoma): 4.64 µM; GI50 (MCF7 breast): 3.34 µM; TGI (MCF7 breast): 8.24 µM; GI50 (SK-MEL-28 melanoma): 2.67 µM; TGI (SK-MEL-28 melanoma): 5.3 µM
